# Measured values published in PMC3003168, “Preparation and In vitro / In vivo characterization of spray dried microsphere formulation encapsulating 4-chlorocurcumin” (Indian Journal of Pharmaceutical Sciences, 2010).
# Experiments:
# CCl4-treated rat model = assay: Hepatoprotective activity in CCl4-treated rat model; type: in vivo, male Wistar rats; conditions: CCl4-treated rats
# Experimental: Hepatoprotective activity was determined for both the microsphere formulation and i.v. solution administration of 4-chlorocurcumin following a protocol reported previously. Another set of rats were used in this study. Male rats weighing around 150-200 g was used in this study. For this experiment, animals were divided into 6 different groups. Group I were normal control. Group II was given carbontetrachloride regularly and it served as toxic control. Group II received CCl4 at a dose of 0.7 ml/kg by intraperitonial route on the 3rd, 6th and 9th day consisting of mixture of CCl4 and olive oil (25:75). Group III received the drug in the solution form by i.v. route. Group III received 4-chlorocurcumin dissolved in PEG 600 solution at a rationale of 1 mg/ml by intravenous route twice daily. Group IV received 4-chlorocurcumin microsphere formulation one time in the beginning of the experiment. Microspheres 2 was administered for this purpose. A 20 mg of formulation was dispersed in 1 ml normal saline and was administered intraperitoneally. Group V were injected with placebo microspheres and Group VI served as a control for PEG injected and was injected 1 ml of PEG solution twice a day. Serum samples were procured from the blood samples collected from common carotid artery on the final day of experimentation prior to sacrifice of the animal. The blood samples collected were subjected to centrifugation for 15 min at 3000 rpm and the serum separated was transferred into fresh empty microcentrifuge tube and was stored in deep freeze for pharmacodynamic evaluation. Hepatoprotective activity was quantified by the activity of SGOT, SGPT levels present in the serum samples and the method used for quantification was modified IFFC method. Subsequently, livers of the all rats in each group were further sent for histopathological studies and for this purpose at the end of the study the rats were sacrificed, the livers were separated carefully and were transferred to sterile containers having formalin solution. Liver sections were subsequently prepared using a previously published method.
# [1] = Pharmacokinetics of 4-chlorocurcumin in rats; type: in vivo; conditions: male, Wistar, blood, iv; rat, i.v. solution, 2.8 mg
# Experimental: From the data of the release studies, a suitable microsphere formulation to be used further in the rat studies was selected. For in vivo characterization, in vivo drug release (pharmacokinetic study) and reduction in hepatoprotective activity in a CCl4-treated rat model were determined. Pharmacokinetics of the formulation was studied in male Wistar rats. After procurement of the rats, these were acclimatized for 10 days prior to the conduction of the experiment. Rats were injected one time with microsphere suspension containing 2.8 mg of active drug intraperitoneally. A 20 mg microsphere suspension was dispersed in 1 ml normal saline and was injected. Parallel to the microsphere administration, another dose of the drug in the form of solution was administered via i.v. route in another set of rats. In this case drug was administered at an equivalent dose of 2.8 mg. Blood was periodically collected from retroorbital sinus and assayed for the drug using a HPLC standard developed using a previously reported method. The mobile phase consisted of methanol:water at a ratio of 70:30. The retention times and the peak areas were noted. Extraction efficiency for the selected system was determined. The following possible pharmacokinetic parameters for both iv solution administration as well as ip microsphere administration were determined using WinNonlin: Ka, ke, Vd, elimination t1/2, absorption t1/2, Tmax, Cmax. Further, using Wagner-Nelson method cumulative amount of drug released into the plasma was determined.
# [2] = serum, final day, solution i.v. twice daily, microspheres 20 mg i.p. one time
smiles,measurement,setting,value
O=C(/C=C/c1ccc(Cl)cc1)CC(=O)/C=C/c1ccc(Cl)cc1 [4-chlorocurcumin],Hepatoprotective activity (reversal of SGOT and SGPT versus toxic control CCl4),CCl4-treated rat model,"although statistically significant, was not reduced to reach the normal levels"
same,Histology of liver,CCl4-treated rat model; end of study,Normal liver
same,SGOT,CCl4-treated rat model; [2],42.10±1.5 u/1
same,SGPT,CCl4-treated rat model; [2],25.7±1.8 u/1
same,Body weights on day 9,"CCl4-treated rat model; solution i.v. twice daily, microspheres 20 mg i.p. one time",190 ± 18 g
same,AUC,[1],227 µg·h/mL
same,Cmax,[1],196 µg/mL
same,Tmax,[1],0.5 h
same,Vd,[1],0.0235 L
same,clearance,[1],0.137 mL/min
same,half-life,[1],1.99 h
